The source of these data is the NIST ThermoML archive (doi:10.1016/j.jct.2012.07.008).

This data set can be described thus: molar enthalpy of vaporization or sublimation. The following applies: 298.15 K; Liquid; drop calorimetry.

Each structure is given as a SMILES string. ± gives the expanded uncertainty stated by the source.

Take `O=C1CCCc2occc21` [6,7-dihydrobenzofuran-4(5H)-one]: the molar enthalpy was found to be 16.6 ± 1.05 kcal/mol.
